Converted amounts (≈) assume the structure as drawn. The source made the active and inactive calls. The calls are words filed in the database; no cut-off is given here.
Legend:
[1] = tested on: Klebsiella pneumoniae; test: Anti-bacterial activity against Klebsiella pneumoniae KPN325 assessed as inhibition of bacterial growth; assay type: functional; conditions: Klebsiella pneumoniae, KPN325; read-out: MIC
[2] = tested on: Pseudomonas aeruginosa; test: Anti-bacterial activity against Pseudomonas aeruginosa ATCC 15442 assessed as inhibition of bacterial growth; assay type: functional; conditions: Pseudomonas aeruginosa, ATCC 15442; read-out: MIC
[3] = tested on: Acinetobacter baumannii; test: Anti-bacterial activity against Acinetobacter baumannii R674 assessed as inhibition of bacterial growth; assay type: functional
[4] = tested on: Candida albicans; test: Anti-fungal activity against Candida albicans assessed as inhibition of fungal growth; assay type: functional; conditions: Candida albicans; read-out: MIC
[5] = tested on: Acinetobacter baumannii; test: Bactericidal activity against Acinetobacter baumannii assessed as bacterial killing at 1 to 8 times of MIC concentration measured upto 8 hrs by time-kill kinetics assay; assay type: functional, organism-based
[6] = tested on: Escherichia coli; test: Bactericidal activity against Escherichia coli ATCC 25922 assessed as bacterial killing at 1 to 8 times of MIC concentration measured upto 8 hrs by time-kill kinetics assay; assay type: functional, organism-based
[7] = Hemolysis in human RBC assessed as morphological changes of RBC by measuring intact/smooth surface rounded cell surface at 128 times of MIC concentration for 6 hrs by microscopic analysis; assay type: toxicity, cell-based; conditions: erythrocyte
[8] = tested on: BEAS-2B; test: Cytotoxicity against human BEAS-2B cells assessed as cell viability at 0.064 mmol/L measured after 24 hrs; assay type: toxicity, cell-based; conditions: 64 µM
[9] = tested on: Acinetobacter baumannii; test: Antibiofilm activity against Acinetobacter baumannii assessed as inhibition rate of bio-film formation at 8 times of MIC concentration in presence of sodium dodecyl sulfate by Crystal violet assay relative to control; assay type: functional, organism-based
[10] = tested on: Escherichia coli; test: Antibiofilm activity against Escherichia coli ATCC 25922 assessed as inhibition rate of bio-film formation at 8 times of MIC concentration in presence of sodium dodecyl sulfate by Crystal violet assay relative to control; assay type: functional, organism-based
[11] = tested on: Escherichia coli; test: Antibiofilm activity against Escherichia coli ATCC 25922 assessed as clearance rate of mature biofilm at MIC concentration relative to control; assay type: functional
[12] = tested on: Acinetobacter baumannii; test: Antibiofilm activity against Acinetobacter baumannii assessed as clearance rate of mature biofilm at 8 times of MIC concentration relative to control; assay type: functional
[13] = tested on: Escherichia coli; test: Antibiofilm activity against Escherichia coli ATCC 25922 assessed as clearance rate of mature biofilm at 8 times of MIC concentration relative to control; assay type: functional
[14] = tested on: Escherichia coli; test: Antibiofilm activity against Escherichia coli ATCC 25922 assessed as reduction of self-aggregation; assay type: functional, organism-based
[15] = tested on: Escherichia coli; test: Reduction of biofilm virulent factors in Escherichia coli ATCC 25922 assessed as decrease in hydrophobicity index; assay type: functional, organism-based
[16] = tested on: Acinetobacter baumannii; test: Reduction of biofilm virulent factors in Acinetobacter baumannii assessed as decrease in extracellular polymeric substances (EPS) by measuring optical density at 490 nm at 1/4 times of MIC concentration by congo red binding assay (reference value: 0.188 to 0.192); assay type: functional
[17] = tested on: Acinetobacter baumannii; test: Reduction of biofilm virulent factors in Acinetobacter baumannii assessed as decrease in extracellular polymeric substances (EPS) by measuring optical density at 490 nm at 1/2 times of MIC concentration by congo red binding assay (reference value: 0.188 to 0.192); assay type: functional
[18] = tested on: Acinetobacter baumannii; test: Anti-bacterial activity against Acinetobacter baumannii assessed as fractional inhibitory concentration index measured upto 9 hrs in presence of norfloxacin; assay type: functional
[19] = tested on: Acinetobacter baumannii; test: Anti-bacterial activity against Acinetobacter baumannii assessed as growth inhibition by measuring optical density measured at 4 time of MIC in presence of 1/8 times of MIC of norfloxacin by Checkerboard assay (reference value: 0.152); assay type: functional
[20] = tested on: Acinetobacter baumannii; test: Anti-bacterial activity against Acinetobacter baumannii assessed as growth inhibition by measuring optical density measured at 4 time of MIC in presence of 1 times of MIC of norfloxacin by Checkerboard assay (reference value: 0.152); assay type: functional
[21] = tested on: Acinetobacter baumannii; test: Anti-bacterial activity against Acinetobacter baumannii assessed as growth inhibition by measuring optical density measured at 1 time of MIC in presence of 2 times of MIC of norfloxacin by Checkerboard assay (reference value: 0.157); assay type: functional
[22] = tested on: Acinetobacter baumannii; test: Anti-bacterial activity against Acinetobacter baumannii assessed as growth inhibition by measuring optical density measured at 1/4 time of MIC in presence of 1/2 times of MIC of norfloxacin by Checkerboard assay (reference value: 0.152); assay type: functional
[23] = tested on: Acinetobacter baumannii; test: Anti-bacterial activity against Acinetobacter baumannii assessed as growth inhibition by measuring optical density measured at 1/4 time of MIC in presence of 1 times of MIC of norfloxacin by Checkerboard assay (reference value: 0.152); assay type: functional
[24] = tested on: Escherichia coli; test: Anti-bacterial activity against Escherichia coli ATCC 25922 assessed as growth inhibition by measuring optical density measured at 4 time of MIC in presence of 1/2 times of MIC of norfloxacin by Checkerboard assay (reference value: 0.125); assay type: functional
[25] = tested on: Escherichia coli; test: Anti-bacterial activity against Escherichia coli ATCC 25922 assessed as growth inhibition by measuring optical density measured at 4 time of MIC in presence of 2 times of MIC of norfloxacin by Checkerboard assay (reference value: 0.125); assay type: functional
[26] = tested on: Escherichia coli; test: Anti-bacterial activity against Escherichia coli ATCC 25922 assessed as growth inhibition by measuring optical density measured at 1/2 time of MIC in presence of 1/4 times of MIC of norfloxacin by Checkerboard assay (reference value: 0.124); assay type: functional
[27] = tested on: Escherichia coli; test: Anti-bacterial activity against Escherichia coli ATCC 25922 assessed as growth inhibition by measuring optical density measured at 1/4 time of MIC in presence of 1/8 times of MIC of norfloxacin by Checkerboard assay (reference value: 0.128); assay type: functional
[28] = tested on: Escherichia coli; test: Anti-bacterial activity against Escherichia coli ATCC 25922 assessed as growth inhibition by measuring optical density measured at 1/4 time of MIC in presence of 1/2 times of MIC of norfloxacin by Checkerboard assay (reference value: 0.128); assay type: functional
[29] = tested on: Escherichia coli; test: Anti-bacterial activity against Escherichia coli ATCC 25922 assessed as growth inhibition by measuring optical density measured at 1/4 time of MIC in presence of 1 times of MIC of norfloxacin by Checkerboard assay (reference value: 0.128); assay type: functional
[30] = tested on: Escherichia coli; test: Anti-bacterial activity against Escherichia coli ATCC 25922 assessed as growth inhibition by measuring optical density measured at 1/4 time of MIC in presence of 2 times of MIC of norfloxacin by Checkerboard assay (reference value: 0.128); assay type: functional
[31] = tested on: Acinetobacter baumannii; test: Reduction in metabolic activity of Acinetobacter baumannii assessed as decrease in fluorescence intensity at 1/4 to 8 times of MIC measured after 6 hrs by resazurin sodium salt assay; assay type: functional, organism-based
[32] = tested on: Escherichia coli; test: Reduction in metabolic activity of Escherichia coli ATCC 25922 at MIC concentration relative to control; assay type: functional; parameters: scale not given: the % may be the effect or the level left
[33] = tested on: Escherichia coli; test: Anti-bacterial activity against Escherichia coli ATCC 25922 assessed as bacterial mortality at 1 to 4 MIC concentration by propidium iodide based fluorescence microscopy relative to control; assay type: functional, organism-based
[34] = tested on: Acinetobacter baumannii; test: Induction of intracellular ROS accumulation in Acinetobacter baumannii assessed as fluorescence intensity at 1/4 to 2 times of MIC by DCFH-DA staining based assay; assay type: functional, organism-based

CCCCc1nc(Cl)c(C2NC(=O)NC(CN3CCN(C(=O)/C(=N/OC)c4csc(N)n4)CC3)=C2C(=O)OCC)[nH]1 (centres undefined)
MIC [1]: 53 µM (≈ 32.2 µg/mL) | MIC [2]: 26 µM (≈ 15.8 µg/mL) | MIC [3]: 7 µM (≈ 4.26 µg/mL) | MIC [4]: 422 µM (≈ 257 µg/mL) | Activity [5]: Active | Activity [6]: Active | Activity [7]: Non-Toxic | Activity [8]: Non-Toxic | Activity [9]: Active | Activity [10]: Active | Activity [11]: 37.7% | Activity [12]: 42.6% | Activity [13]: 37.9% | Activity [14]: Dose-Dependent Effect | Activity [15]: Active | OD [16]: 0.178 | OD [17]: 0.173 | fractional inhibitory concentration index (FICI) [18]: 0.75 | OD [19]: 0.118 | OD [20]: 0.051 | OD [21]: 0.053 | OD [22]: 0.125 | OD [23]: 0.112 | OD [24]: 0.052 | OD [25]: 0.051 | OD [26]: 0.118 | OD [27]: 0.122 | OD [28]: 0.125 | OD [29]: 0.112 | OD [30]: 0.078 | Activity [31]: Active | Activity [32]: 63.6% | Activity [33]: Active | Activity [34]: Active
